Data on 3 compounds can be found in publication PMC12062478, “Screening herbal and natural product libraries to aid discovery of novel allosteric modulators of human P2X7” (Purinergic Signalling, 2024).

In data set [1] the test system is non-transfected HEK-293 cells. As to the kind of experiment: YO-PRO-1 dye uptake in non-transfected HEK-293 cells. It counts as cell-based, human. The settings on record: 10 µM, in the presence of ATP. How it is done: HEK-hP2X7 or HEK-hP2X4 cells were plated at 2.5 × 10^4 cells per well (100 µL volume) the day before experiments into poly-D-lysine (Merck Millipore) coated 96-well plates (NUNC, Fisher Scientific #167-008). The membrane impermeant dye YO-PRO-1 iodide (Life Technologies, Fisher Scientific) was used at a final concentration of 2 µM in low divalent buffer (145 mM NaCl, 5 mM KCl, 0.2 mM CaCl2, 13 mM glucose, 10 mM HEPES, pH 7.3, osm 300–310). Media were removed from the plate, and 90 µL of YO-PRO-1 buffer was added per well. Plates were warmed to 37 °C for 5 min before recording. Data was acquired on a Flexstation 3 plate reader (Molecular Devices) using excitation wavelength 490 nm, emission wavelength 520 nm, and six reads per well (PMT medium). Compounds or plant extracts at 10X final concentration were automatically injected at 30 s, and then, ATP was automatically injected at 90 s from a 96-well V-bottomed drug plate (Greiner). This enabled cells to be pre-treated with compounds/plant extracts for 60 s before the agonist was injected. […]
Fig. 6 Dioscin enhances P2X7-dependent pore formation and potentiates channel opening. […] YO-PRO-1 uptake was quantified between 50 and 300 s (n = 5). […] Cells were voltage-clamped at − 60 mV, and responses to a 5-s stimulation of ATP (100 µM) followed by a 5-s stimulation of ATP (100 µM) + dioscin/diosgenin (10 µM) were measured from HEK-hP2X7 cells. […]

Data set [2] has as its system HEK293 cells. As to the kind of experiment: Propidium iodide staining of HEK293 cells (membrane permeabilisation). It is filed as cell-based, human. How it is done:
Fig. 6 Dioscin enhances P2X7-dependent pore formation and potentiates channel opening. A Dioscorea nipponica (organic) plant extract (30 µg/mL) increased ATP-dependent YO-PRO-1 iodide uptake. AZ10606120 (10 µM, grey bars) was added to block hP2X7. B YO-PRO-1 uptake following a co-stimulation of HEK-hP2X7 cells with 200 µM ATP ± the named compounds in the presence or absence of AZ10606120. YO-PRO-1 uptake was quantified between 50 and 300 s (n = 5). C Whole-cell patch-clamp recordings were performed at room temperature. Cells were voltage-clamped at − 60 mV, and responses to a 5-s stimulation of ATP (100 µM) followed by a 5-s stimulation of ATP (100 µM) + dioscin/diosgenin (10 µM) were measured from HEK-hP2X7 cells. Representative traces are shown. D Summary of normalised current amplitudes represented as a fold change compared to ATP responses in the absence of dioscin/diosgenin (n = 10–18 cells). E Concentration response to ATP in the presence of dioscin (10 µM, green) or vehicle (DMSO, black) using YO-PRO-1 uptake assay in HEK-hP2X7 and F HEK-293 cells. […] H HEK-293 cells were treated with dioscin or CK (10 µM) for 10 min and stained with propidium iodide to reveal permeabilised cells. Images taken with EVOS microscope

In data set [3] the target is T1, hP2X7 (Homo sapiens, UniProt Q99572).
T1 sequence (Q99572 1-595): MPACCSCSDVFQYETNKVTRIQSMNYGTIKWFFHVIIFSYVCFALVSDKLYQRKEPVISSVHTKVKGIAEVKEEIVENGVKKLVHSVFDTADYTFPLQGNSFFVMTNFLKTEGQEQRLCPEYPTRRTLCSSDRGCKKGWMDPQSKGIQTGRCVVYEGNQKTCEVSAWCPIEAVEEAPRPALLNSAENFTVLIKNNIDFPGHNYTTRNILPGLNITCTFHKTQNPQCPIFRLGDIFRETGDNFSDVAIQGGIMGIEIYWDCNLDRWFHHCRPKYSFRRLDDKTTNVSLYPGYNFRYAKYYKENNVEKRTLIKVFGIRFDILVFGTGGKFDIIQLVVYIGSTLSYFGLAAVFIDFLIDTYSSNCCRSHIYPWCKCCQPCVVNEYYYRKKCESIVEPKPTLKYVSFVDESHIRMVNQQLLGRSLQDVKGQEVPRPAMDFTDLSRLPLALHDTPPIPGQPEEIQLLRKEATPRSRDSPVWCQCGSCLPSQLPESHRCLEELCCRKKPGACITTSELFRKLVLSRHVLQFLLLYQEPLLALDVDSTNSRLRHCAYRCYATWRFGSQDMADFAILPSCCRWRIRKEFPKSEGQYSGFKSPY
The data set can be described thus: Whole-cell patch-clamp electrophysiology in HEK-hP2X7 cells. It is filed as cell-based. The procedure: Stably expressing HEK-hP2X7 cells were plated onto 13-mm glass coverslips 24 h prior to use. Membrane currents were recorded in the whole-cell patch-clamp configuration using an EPC10 amplifier (HEKA Elektronik) and borosilicate glass electrodes (TF-150 World Precision Instruments), resistance […] when filled with standard internal solution (145 mM NaCl, 10 mM HEPES, 10 mM EGTA, pH 7.3). Cells were voltage-clamped at − 60 mV, and dialysis of intracellular contents was performed for 1 min prior to experimental procedures. Cells were continuously perfused by gravity feed with standard divalent buffer solution (145 mM NaCl, 5 mM KCl, 2 mM CaCl2, 1 mM MgCl2, 13 mM glucose, 10 mM HEPES, pH 7.3) prior to seal formation, and low divalent buffer solution was used for agonist and PAM application. Agonists were applied using a computer-controlled fast-flow system (RSC-160; Bio-Logic Scientific Instruments) with the perfusion capillaries placed in close proximity to the cell under investigation.
(§1) Fig. 6 Dioscin enhances P2X7-dependent pore formation and potentiates channel opening. A Dioscorea nipponica (organic) plant extract (30 µg/mL) increased ATP-dependent YO-PRO-1 iodide uptake. AZ10606120 (10 µM, grey bars) was added to block hP2X7. B YO-PRO-1 uptake following a co-stimulation of HEK-hP2X7 cells with 200 µM ATP ± the named compounds in the presence or absence of AZ10606120. YO-PRO-1 uptake was quantified between 50 and 300 s (n = 5). C Whole-cell patch-clamp recordings were performed at room temperature. Cells were voltage-clamped at − 60 mV, and responses to a 5-s stimulation of ATP (100 µM) followed by a 5-s stimulation of ATP (100 µM) + dioscin/diosgenin (10 µM) were measured from HEK-hP2X7 cells. Representative traces are shown. D Summary of normalised current amplitudes represented as a fold change compared to ATP responses in the absence of dioscin/diosgenin (n = 10–18 cells). E Concentration response to ATP in the presence of dioscin (10 µM, green) or vehicle (DMSO, black) using YO-PRO-1 uptake assay in HEK-hP2X7 and F HEK-293 cells. […]
For orientation: The patch-clamp technique gives a direct electrical read-out from membranes.

For data set [4], the target named is T2, P2X7 (Homo sapiens, UniProt Q99572).
T2 construct: expressed in transfected cells
T2 sequence (Q99572 1-595): T1 sequence (Q99572 1-595)
As to the kind of experiment: ATP-induced YO-PRO-1 dye uptake in HEK-hP2X7 cells. It counts as cell-based. How it is done:
HEK-hP2X7 or HEK-hP2X4 cells were plated at 2.5 × 10^4 cells per well (100 µL volume) the day before experiments into poly-D-lysine (Merck Millipore) coated 96-well plates (NUNC, Fisher Scientific #167-008). The membrane impermeant dye YO-PRO-1 iodide (Life Technologies, Fisher Scientific) was used at a final concentration of 2 µM in low divalent buffer (145 mM NaCl, 5 mM KCl, 0.2 mM CaCl2, 13 mM glucose, 10 mM HEPES, pH 7.3, osm 300–310). Media were removed from the plate, and 90 µL of YO-PRO-1 buffer was added per well. Plates were warmed to 37 °C for 5 min before recording. Data was acquired on a Flexstation 3 plate reader (Molecular Devices) using excitation wavelength 490 nm, emission wavelength 520 nm, and six reads per well (PMT medium). […] […] Pipette height was set to 80 µL and the rate of injection was 4.
YO-PRO-1 dye uptake assay data is plotted as a percentage of control where control responses are measured in the absence of plant extract. Cell viability data is plotted as a percentage of control or background-corrected fluorescence data. Concentration–response graphs were plotted using GraphPad Prism v6 with a non-linear regression fit (variable slope). IC50 values were generated from collated datasets from a minimum of three independent experiments. Statistical differences were determined by one-way ANOVA statistical tests performed using GraphPad Prism v6 with Dunnett’s multiple comparison post hoc test. Significance was taken as P ≤ 0.05.
We acquired a natural product library (Set IV) containing 419 compounds from NCI DTP and tested these on P2X7 responses using a YO-PRO-1 dye uptake in HEK293 cells stably expressing human P2X7 (HEK-hP2X7). […] This allowed us to assess for any immediate effect of the injected compound, and secondly, it allowed for any potential negative modulators to be pre-incubated with P2X7.

For data set [5], the system named is HEK-293 cells. As to the kind of experiment: Cell viability assay (AlamarBlue) in non-transfected HEK-293 cells. It is filed as cell-based, human. The note with it: 10 µM, 24 h. The procedure:
Cells were plated at 2 × 10^4 cells/well in Nunc 96-well plates (Fisher Scientific #167-008) 24 h prior to stimulation with ATP 500 µM or 3 mM in combination with identified positive or negative crude plant extracts, respectively, or with purified compounds (10 µM) for 24 h. Following incubation, resazurin (0.1 mg/mL in PBS, Sigma-Aldrich) was added to cells for 2 h at 37 °C and fluorescence was measured on a Flexstation 3 plate reader (excitation 570 nm; emission 600 nm).
as §1, with “cells).” for “cells). E Concentration response to ATP in the presence of dioscin (10 µM, green) or vehicle (DMSO, black) using YO-PRO-1 uptake assay in HEK-hP2X7 and F HEK-293 cells.”
For orientation: Alamar Blue is a resazurin reagent that responds to reducing activity.

For data set [6], the target named is T1, hP2X7. The settings on record: electrophysiological recordings; read-out: IC50; cited from earlier work.
Data set [7] is described as follows: Cytotoxicity of purified glycoside (data not shown). It counts as cell-based.

Broadly, the IC50 is the concentration that inhibits the measured activity by half.

As to `C[C@@H]1CC[C@@]2(OC1)O[C@H]1C[C@H]3[C@@H]4CC=C5C[C@@H](O[C@@H]6O[C@H](CO)[C@@H](O[C@@H]7O[C@@H](C)[C@H](O)[C@@H](O)[C@H]7O)[C@H](O)[C@H]6O[C@@H]6O[C@@H](C)[C@H](O)[C@@H](O)[C@H]6O)CC[C@]5(C)[C@H]4CC[C@]3(C)[C@H]1[C@@H]2C` [Dioscin, dioscin], the “YO-PRO-1 dye uptake in non-transfected cells” value in data set [1] is recorded as “increase YO-PRO-1 dye uptake in non-transfected HEK-293 cells in the presence of ATP”. Further, in data set [2], the “Application time after which membrane permeabilisation was observed” value was over 10 min. In data set [2] (10 µM, within 10 min of addition), the Propidium iodide staining entry was “induce propidium iodide staining”. Besides, the “Potentiation of hP2X7 ion channel opening” value in data set [3] (10 µM with ATP 100 µM, 5-s application, −60 mV) is recorded as “could potentiate hP2X7 ion channel opening”. Also, in data set [3] (short 5-s application), the “Ion channel opening by compound alone” value is on record as “not inducing ion channel opening itself”. Moreover, the “Sensitivity of the potentiated ATP response to P2X7 antagonist AZ10606120” value in data set [4] (AZ10606120 10 µM) was “could be reduced with AZ10606120”. The “Effect on YO-PRO-1 dye uptake with 200 µM ATP” value in data set [4] (co-stimulation with 200 µM ATP) is “able to enhance YO-PRO-1 dye uptake”. The “Effect on ATP concentration–response curve” value in data set [4] (compound 10 µM) is “increase in the maximum response with no leftward shift”. Besides, the “Effect on P2X7 responses” value in data set [4] (purified glycosides/aglycone from potentiating extracts) is recorded as “could effectively potentiate P2X7 responses”. Further, the “Cell death in non-transfected HEK-293 cells” value in data set [5] is on record as “induce cell death”.

As to `Cc1cc(O)c2c(c1)C(=O)c1cc(O)cc(O)c1C2=O` [Emodin], the IC50 in data set [4] (HEK-hP2X7, 10 min pre-treatment, ATP 1 mM, read-out: IC50 value (95% CI)) is 55.2 µM; in data set [6], 3 µM.

`CC1(C)CC[C@]2(C(=O)O)CC[C@]3(C)C(=CC[C@@H]4[C@@]5(C)CC[C@H](O[C@@H]6O[C@H](C(=O)O)[C@@H](O)[C@H](O[C@@H]7OC[C@@H](O)[C@H](O)[C@H]7O)[C@H]6O)C(C)(C)[C@@H]5CC[C@]43C)[C@@H]2C1` [Momordin Ic, momordin Ic]: the Cytotoxicity result in data set [7] was “high level of cytotoxicity”.
